# In patent publication US10294234B2, “HIV inhibitor compounds” (priority 2017, dated 2019):
# How the values were obtained:
# [1] = microsomes
# How it was run: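 Compounds at 1 uM were incubated in duplicate with dog, rat or human liver microsomes (0.5 mg/mL protein) and an NADPH-regenerating system, sampled at 2, 12, 25, 45 and 65 minutes. Remaining parent was measured by LC/MS/MS, and Clint was calculated from the in vitro t1/2.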
# [2] = tested on: HIV-1 (IIIB) in MT-4 cells; test: MT-4 HIV assay; assay type: cell-based; conditions: Human immunodeficiency virus 1, MT4, 120 h; HIV-1 (IIIB), MT-4 cells, 5 days, Cell Titer Glo; read-out: EC50
# How it was run: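 MT-4 cells infected with HIV-1 IIIB (1:250 stock dilution) were incubated with 1:3 serially diluted compounds in RPMI with 10% FBS for 5 days at 37 °C. Cell Titer Glo luminescence was the readout. Plates included mock-infected wells, no-drug wells and 5 uM AZT controls.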
# in vivo = conditions: rat, in vivo; for Vd / RAT PO F: male, SD; for Vd / RAT IV CL / RAT IV T1/2: iv; for RAT PO F: 2.5 mg/kg
# Procedure: Each dosing group consisted of 3 male naïve SD Rats. At dosing, the animals weighed between 0.27 to 0.32 kg. The animals were fasted overnight prior to dose administration. The test article was administered by intravenous infusion over 30 min. The rate of infusion was adjusted according to the body weight of each animal to deliver a dose of 0.5 or 1.0 mg/kg. For the oral dosing group, the test article was administered to animals by oral gavage administration. Serial venous blood samples (approximately 0.30 mL each) were taken at predose and 0.25, 0.48, 0.58, 0.75, 1.5, 3, 6, 8, 12 and 24 hours post dose for the IV dosing group animals. Blood samples were taken at predose, 0.25, 0.50, 1, 2, 4, 6, 8, 12 and 24 hours post dose for the oral group animals. The blood samples were collected into Vacutainer™ tubes containing EDTA-K2 as the anti-coagulant and were immediately placed on wet ice pending centrifugation for plasma. An LC/MS/MS method was used to measure the concentration of test compound in plasma. Non-compartmental pharmacokinetic analysis was performed on the plasma concentration-time data.
# [3] = 3H Human Predicted Clearance Assay (tritiated analogs); assay type: in vitro ADME; conditions: human, 1 uM
# Procedure: 3H Human Predicted Clearance Assay:
# For certain compounds, tritiated analogs (H^3) were prepared to further determined their human predicted clearance with increased resolution. Those studies were performed as described above using the tritiated analogs. Data from those compounds is found in Table 2 below and reported in FIG. 1 (note ATV and DRV were not tritiated).
Compound,Human Pred Cl. [1] [L/H/kg],Rat. Pred. Cl. [1] [L/H/kg],EC50 [2] [nM],Vd (in vivo) [L/kg],RAT PO F (in vivo) [%],RAT IV CL (in vivo) [mL/min/kg],RAT IV T1/2 (in vivo) [h],3H Human Predicted Cl. [3],Dog. Pred. Cl. [1] [L/H/kg]
"COC(=O)N[C@H](C(=O)N[C@@H](Cc1ccc(C#Cc2ccc(N3CC4CCC(C3)N4C3COC3)nc2)cc1)[C@@H](O)CN(Cc1c(F)cc(-c2cc(F)ccn2)cc1F)NC(=O)[C@@H](NC(=O)OC)C(C)(C)C(F)(F)F)C(C)(C)C(F)(F)F [Example 239, methyl ((5S,8S,9S,14S)-11-(2,6-difluoro-4-(4-fluoropyridin-2-yl)benzyl)-16,16,16-trifluoro-9-hydroxy-15,15-dimethyl-8-(4-((6-(8-(oxetan-3-yl)-3,8-diazabicyclo[3.2.1]octan-3-yl)pyridin-3-yl)ethynyl)benzyl)-3,6,13-trioxo-5-(1,1,1-trifluoro-2-methylpropan-2-yl)-2-oxa-4,7,11,12-tetraazahexadecan-14-yl)carbamate]",<0.11,<0.18,4.45,5.49,26.3,6.7,12.9,0.13,–
"COC(=O)N[C@H](C(=O)N[C@@H](Cc1ccc(C#Cc2cnc(N3CC4CCC(C3)N4C3COC3)nc2)cc1)[C@@H](O)CN(Cc1c(F)cc(-c2ncccn2)cc1F)NC(=O)[C@@H](NC(=O)OC)C(C)(C)C(F)(F)F)C(C)(C)C(F)(F)F [Example 89, Methyl ((5S,8S,9S,14S)-11-(2,6-difluoro-4-(pyrimidin-2-yl)benzyl)-16,16,16-trifluoro-9-hydroxy-15,15-dimethyl-8-(4-((2-(8-(oxetan-3-yl)-3,8-diazabicyclo[3.2.1]octan-3-yl)pyrimidin-5-yl)ethynyl)benzyl)-3,6,13-trioxo-5-(1,1,1-trifluoro-2-methylpropan-2-yl)-2-oxa-4,7,11,12-tetraazahexadecan-14-yl)carbamate]",<0.11,<0.18,3.32,3.53,44.2,5,10.2,0.08,1.67
"COC(=O)N[C@H](C(=O)N[C@@H](Cc1ccc(C#Cc2cnc(N3CC4CCC(C3)N4C3COC3)nc2)cc1)[C@@H](O)CN(Cc1c(F)cc(-c2ccn(CC(F)F)n2)cc1F)NC(=O)[C@@H](NC(=O)OC)C(C)(C)C(F)(F)F)C(C)(C)C(F)(F)F [Example 36, Methyl ((5S,8S,9S,14S)-11-(4-(1-(2,2-difluoroethyl)-1H-pyrazol-3-yl)-2,6-difluorobenzyl)-16,16,16-trifluoro-9-hydroxy-15,15-dimethyl-8-(4-((2-(8-(oxetan-3-yl)-3,8-diazabicyclo[3.2.1]octan-3-yl)pyrimidin-5-yl)ethynyl)benzyl)-3,6,13-trioxo-5-(1,1,1-trifluoro-2-methylpropan-2-yl)-2-oxa-4,7,11,12-tetraazahexadecan-14-yl)carbamate]",<0.11,0.27,3.68,5.99,16.4,5.33,15.7,0.1,–
"COC(=O)N[C@H](C(=O)N[C@@H](Cc1ccc(-c2cnc(N3CC4CCC(C3)N4C3COC3)nc2)cc1)[C@@H](O)CN(Cc1c(F)cc(-c2ccn(C(F)F)n2)cc1F)NC(=O)[C@@H](NC(=O)OC)C(C)(C)C(F)(F)F)C(C)(C)C(F)(F)F [Example 199, Methyl ((5S,8S,9S,14S)-11-(4-(1-(difluoromethyl)-1H-pyrazol-3-yl)-2,6-difluorobenzyl)-16,16,16-trifluoro-9-hydroxy-15,15-dimethyl-8-(4-(2-(8-(oxetan-3-yl)-3,8-diazabicyclo[3.2.1]octan-3-yl)pyrimidin-5-yl)benzyl)-3,6,13-trioxo-5-(1,1,1-trifluoro-2-methylpropan-2-yl)-2-oxa-4,7,11,12-tetraazahexadecan-14-yl)carbamate]",<0.11,0.48,2.72,1.07,14.7,7.67,2.09,0.15,0.91
"COC(=O)N[C@H](C(=O)NN(Cc1c(F)cc(-c2ccn(C(F)F)n2)cc1F)C[C@H](O)[C@H](Cc1ccc(C#Cc2ccc(N3CC4CCC(C3)N4C3COC3)nc2)cc1)NC(=O)[C@@H](NC(=O)OC)C(C)(C)C(F)(F)F)C(C)(C)C [Example 73, Methyl ((5S,8S,9S,14S)-11-(4-(1-(difluoromethyl)-1H-pyrazol-3-yl)-2,6-difluorobenzyl)-9-hydroxy-15,15-dimethyl-8-(4-((6-(8-(oxetan-3-yl)-3,8-diazabicyclo[3.2.1]octan-3-yl)pyridin-3-yl)ethynyl)benzyl)-3,6,13-trioxo-5-(1,1,1-trifluoro-2-methylpropan-2-yl)-2-oxa-4,7,11,12-tetraazahexadecan-14-yl)carbamate]",0.13,<0.18,4.72,3.34,35,5.33,9.43,0.09,–
"COC(=O)N[C@H](C(=O)N[C@@H](Cc1ccc(C#Cc2ccc(N3CC4CCC(C3)N4C3COC3)nc2)cc1)[C@@H](O)CN(Cc1c(F)cc(-c2ccn(CC(F)F)n2)cc1F)NC(=O)[C@@H](NC(=O)OC)C(C)(C)C(F)(F)F)C(C)(C)C(F)(F)F [Example 46, Methyl ((5S,10S,11S,14S)-8-(4-(1-(2,2-difluoroethyl)-1H-pyrazol-3-yl)-2,6-difluorobenzyl)-16,16,16-trifluoro-10-hydroxy-15,15-dimethyl-11-(4-((6-(8-(oxetan-3-yl)-3,8-diazabicyclo[3.2.1]octan-3-yl)pyridin-3-yl)ethynyl)benzyl)-3,6,13-trioxo-5-(1,1,1-trifluoro-2-methylpropan-2-yl)-2-oxa-4,7,8,12-tetraazahexadecan-14-yl)carbamate]",<0.11,0.19,4.34,4.22,13,7.5,9.22,0.04,1.64
"COC(=O)N[C@H](C(=O)N[C@@H](Cc1ccc(C#Cc2ccc(N3CC4CCC(C3)N4C3COC3)nc2)cc1)[C@@H](O)CN(Cc1c(F)cc(-c2ncccn2)cc1F)NC(=O)[C@@H](NC(=O)OC)C(C)(C)C(F)(F)F)C(C)(C)C(F)(F)F [Example 101, Methyl ((5S,8S,9S,14S)-11-(2,6-difluoro-4-(pyrimidin-2-yl)benzyl)-16,16,16-trifluoro-9-hydroxy-15,15-dimethyl-8-(4-((6-(8-(oxetan-3-yl)-3,8-diazabicyclo [3.2.1]octan-3-yl)pyridin-3-yl)ethynyl)benzyl)-3,6,13-trioxo-5-(1,1,1-trifluoro-2-methylpropan-2-yl)-2-oxa-4,7,11,12-tetraazahexadecan-14-yl)carbamate]",<0.11,<0.18,4.22,6.07,38.4,8,10,0.08,–
